Positions of bridges follow the written chain, without caps; N, C: chain ends. Non-standard residues stand in square brackets, D forms with d. Nle = CCCC[C@H](N)C(=O)O; AEEA = NCCOCCOCC(=O)O; Fluo = fluorescein
How the values were obtained:
Assay type in all cases: cell-based
Jurkat = assay: Cell penetration (cellular uptake by confocal microscopy) in Jurkat cells; conditions: t 2 h, 2 μM CPP, no fetal calf serum, 37° C., fluorescein fluorescence
Protocol: (§1) Methods and Procedures: Cells were plated onto μ-slide 8 well chambered coverslips (IBIDI) with ibidi standard-bottom and cultured overnight. Peptide stocks were prepared in MillQ and were diluted in cell growth media for cellular uptake studies. Cells were carefully washed with culture medium without fetal calf serum, incubated with 2 μM CPP concentration in absence of fetal calf serum and analyzed by confocal microscopy regarding uptake efficiency and localization over 2 h at 37° C. Finally, trypan blue (0.4% end concentration) was administered to quench cell surface fluorescence followed by an endpoint imaging step. Plates were imaged with an excitation at 488 nm and detection of fluorescence over 500-550 nm (fluorescein) using a TCS SP5 confocal microscope (Leica 174 Microsystems, Mannheim, Germany) equipped with an HCX PL APO 175 63×N.A. 1.2 water immersion lens and a temperature-controlled microscope stage.

HeLa cells = assay: Cell penetration (cellular uptake by confocal microscopy) in HeLa cells; conditions: 2 μM CPP; for penetration of HeLa cells (in words) / localization of fluorescence in HeLa cells: confocal microscopy; for penetration of HeLa cells (in words): intracellular signal; for cell penetration, HeLa(t2 h): t 2 h
Protocol: (§2) The peptides of the invention were tested for cell penetration in HeLa and HEK293T cell lines.
(§3) Materials: The HeLa (DSMZ) and HEK293T cells were maintained in growth media and then passaged every 2-3 days. Growth media for HeLa cells was RPMI 1640, 10% fetal calf serum, MEM-non-essential amino acids, sodium pyruvate and L-glutamine (GIBCO). Growth media for HEK293T DMEM was supplemented with 10% fetal calf serum, MEM-non-essential amino acids, sodium pyruvate and glutamine (all GIBCO).
as §1

HEK293T cells = assay: Cell penetration (cellular uptake by confocal microscopy) in HEK293T cells; conditions: 2 μM CPP; for cell penetration, HEK293T (t2 h): t 2 h, no fetal calf serum, 37° C., fluorescein fluorescence
Protocol: as §2, §3, §1

[1] = no fetal calf serum, 37° C., fluorescein fluorescence

Row | Substance | cell penetration, Jurkat (t2 h) (Jurkat) | penetration of HeLa cells (in words) (HeLa cells) | cell penetration, HeLa(t2 h) (HeLa cells; [1]) | cell penetration, HEK293T (t2 h) (HEK293T cells) | localization of fluorescence in HeLa cells (HeLa cells) | localization of fluorescence in HEK293T cells (HEK293T cells; confocal microscopy) | cell penetration, HeLa (t30 min) (HeLa cells; t 30 min, no fetal calf serum, 37° C., fluorescein fluorescence)
1 | Fluo-(D-Met)-Ile-(D-Ile)-Leu-Ile-Ile-Gly-Ser-Thr-Ser-Arg-Asp-His-Nle-Val-Leu-His-Glu-Tyr-Val-Asn-Ala-Ala-Gly-Ile-Thr-Ado-NH2 (Fluo-[dM]I[dI]LIIGSTSRDH[Nle]VLHEYVNAAGIT-{AEEA-NH2}) [Example 5] | 0.18 | low intracellular signals | 0.22 | 0.5 |  |  | 
2 | Fluo-Phe-Ile-cyclo(Asp-Ile-Ile-Ile-Lys)-Ile-Leu-Leu-Ile-Gly-Ser-Thr-Ser-Arg-Asp-His-Nle-Val-Leu-His-Glu-Tyr-Val-Asn-Ala-Ala-Gly-Ile-Thr-Ado-NH2 (Fluo-FIDIIIKILLIGSTSRDH[Nle]VLHEYVNAAGIT-{AEEA-NH2}; lactam 3-7) [Example 7] | 1.35 | high | 0.28 | 0.28 | localized in endosomes | pronounced cytosolic and partly endosomal fluorescence | 
3 | Fluo-cyclo(Lys-Nle-Ile-Ile-Leu-Ile-Ile-Asp)-Gly-Ser-Thr-Ser-Arg-Asp-His-Nle-Val-Leu-His-Glu-Tyr-Val-Asn-Ala-Ala-Gly-Ile-Thr-Ado-NH2 (Fluo-K[Nle]IILIIDGSTSRDH[Nle]VLHEYVNAAGIT-{AEEA-NH2}; lactam 1-8) [Example 3] | 0.77 | low intracellular signals | 0.28 | 0.35 |  |  | 
4 | Fluo-Met-Ile-Ile-Leu-Ile-Ile-Gly-Ser-Thr-Ser-Arg-Asp-His-Met-Val-Leu-His-Glu-Tyr-Val-Asn-Ala-Ala-Gly-Ile-Thr-NH2 (fluorescein-MIILIIGSTSRDHMVLHEYVNAAGIT-NH2) [Example 1] |  | high | 0.11 |  | localized in endosomes and cytosol |  | 0.13
5 | Fluo-cyclo(Lys-Ile-Ile-Ile-Ile-Asp)-Gly-Ser-Thr-Ser-Arg-Asp-His-Nle-Val-Leu-His-Glu-Tyr-Val-Asn-Ala-Ala-Gly-Ile-Thr-Ado-NH2 (Fluo-KIIIIDGSTSRDH[Nle]VLHEYVNAAGIT-{AEEA-NH2}; lactam 1-6) [Example 2] | 0.9 | low intracellular signals | 0.18 | 0.23 |  |  | 
6 | Fluo-Met-Ile-Ile-Leu-Ile-Ile-Met-Gly-Val-Ala-Asp-Leu-Ile-Lys-Lys-Phe-Glu-Ser-Ile-Ser-Lys-Glu-Glu-NH2 [Example 6] | 0.44 | low intracellular signals | 0.14 | 0.08 |  |  | 
7 | Fluo-Nle-Ile-Ile-Leu-Ile-Ile-Gly-Ser-Thr-Ser-Arg-Asp-His-Nle-Val-Leu-His-Glu-Tyr-Val-Asn-Ala-Ala-Gly-Ile-Thr-Ado-NH2 (Fluo-[Nle]IILIIGSTSRDH[Nle]VLHEYVNAAGIT-{AEEA-NH2}) [Example 4] | 0.85 |  | 0.12 | 0.16 |  |  | 

Source: patent US20170369529A1, “CELL PENETRATING PEPTIDES” (Hoffmann-La Roche Inc., priority 2014, published 2017)
